Measured values: US7935724B2, “Thiophene and benzothiophene hydroxamic acid derivatives” (Merck HDAC Research, LLC, priority 2003, dated 2011)
Like-named read-outs stand apart in the source and are kept apart here.

Target: T1, histone deacetylase, subtype 1 (HDAC1) (Homo sapiens, UniProt Q13547)
T1 construct: Flag; made in house
Assay: HDAC1-Flag assay (in vitro deacetylation assay)
Assay type: biochemical
Settings: concentration for 50% inhibition of deacetylation, substrate at Km, unit inferred, text gives nm, read-out: HDAC Inhibition
Method: Novel compounds were tested for their ability to inhibit histone deacetylase, subtype 1 (HDAC1) using an in vitro deacetylation assay. The enzyme source for this assay was an epitope-tagged human HDAC1 complex immuno-purified from stably expressing mammalian cells. The substrate consisted of a commercial product containing an acetylated lysine side chain (BIOMOL Research Laboratories, Inc., Plymouth Meeting, Pa.). Upon deacetylation of the substrate by incubation with the purified HDAC1 complex, a fluorophore is produced that is directly proportional to the level of deacetylation.

[1] = Table 1, benzothiophene backbone

T1 sequence (Q13547 whole entry): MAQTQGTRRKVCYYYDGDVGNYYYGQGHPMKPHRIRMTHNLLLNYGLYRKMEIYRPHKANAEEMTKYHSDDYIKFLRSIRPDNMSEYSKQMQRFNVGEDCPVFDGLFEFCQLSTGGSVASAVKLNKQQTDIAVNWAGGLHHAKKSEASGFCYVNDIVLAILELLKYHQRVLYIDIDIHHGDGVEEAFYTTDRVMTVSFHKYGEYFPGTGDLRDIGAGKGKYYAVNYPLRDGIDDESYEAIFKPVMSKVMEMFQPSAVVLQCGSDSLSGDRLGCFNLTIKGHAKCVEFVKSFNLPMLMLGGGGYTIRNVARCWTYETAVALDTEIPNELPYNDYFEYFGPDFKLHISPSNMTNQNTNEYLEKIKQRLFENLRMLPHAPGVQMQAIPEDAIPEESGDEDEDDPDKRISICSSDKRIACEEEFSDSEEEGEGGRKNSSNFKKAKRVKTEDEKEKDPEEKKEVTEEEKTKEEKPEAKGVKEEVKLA

IC50 [1] [nM] | IC50 (Table 2, thiophene backbone) [nM] | SMILES
90 ± 11.3 | – | O=C(NCCCc1ccccc1)c1ccc2cc(C(=O)NO)sc2c1 [Compound 160]
144 ± 63.7 | – | O=C(NCCc1cc2ccccc2[nH]1)c1ccc2cc(C(=O)NO)sc2c1 [Compound 128]
66.5 ± 2.1 | – | O=C(NCc1ccccc1Cl)c1ccc2sc(C(=O)NO)cc2c1 [Compound 169]
734 ± 34.6 | – | O=C(NO)c1cc2cc(CNCCN3CCOCC3)ccc2s1 [Compound 163]
1580 ± 334 | – | O=C(NO)c1cc2cc(CNCCc3ccc(OCc4ccccc4)c(OCc4ccccc4)c3)ccc2s1 [Compound 144]
52.5 ± 10.6 | – | O=C(NO)c1cc2cc(NS(=O)(=O)c3ccc4ccccc4c3)ccc2s1 [Compound 17]
206 ± 50.9 | – | O=C(CN(CCc1ccccc1)Cc1ccccc1)Nc1ccc2cc(C(=O)NO)sc2c1 [Compound 117]
1170 ± 214 | – | O=C(NO)C(=O)Nc1ccc2cc(C(=O)NO)sc2c1 [Compound 24]
150 ± 12.7 | – | CC(=O)N1CCN(CC(=O)Nc2ccc3cc(C(=O)NO)sc3c2)CC1 [Compound 114]
129 ± 18.3 | – | O=C(NCCc1c[nH]c2ccccc12)c1ccc2sc(C(=O)NO)cc2c1 [Compound 173]
53 ± 7 | – | O=C(NCc1ccccc1)c1ccc2cc(C(=O)NO)sc2c1 [Compound 92]
325 ± 57.4 | – | COc1ccc(CCNCc2ccc3sc(C(=O)NO)cc3c2)cc1OC [Compound 143]
36 ± 1.4 | – | COc1ccc(CNC(=O)c2ccc3sc(C(=O)NO)cc3c2)cc1 [Compound 168]
– | 581 | O=C(CCc1ccc(C(=O)NO)s1)NCC(c1ccccc1)c1ccccc1 [Compound 83]
157 | – | O=C(Nc1ccc2sc(C(=O)NO)cc2c1)c1cccnc1 [Compound 37]
949 ± 834 | – | O=C(NO)c1cc2cc(N(Cc3ccccc3)Cc3ccccc3)ccc2s1 [Compound 21]
– | 120 | O=C(/C=C/c1ccc(C(=O)NO)s1)NCC1CCCCC1 [Compound 67]
– | 690 | O=C(CCc1ccc(C(=O)NO)s1)NCCc1ccccc1 [Compound 81]
737 ± 143 | – | COC(=O)c1ccc2sc(C(=O)NO)cc2c1 [Compound 45]
261 ± 89.2 | – | O=C(NC1CCN(Cc2ccccc2)CC1)c1ccc2cc(C(=O)NO)sc2c1 [Compound 129]
– | 397 | O=C(/C=C/c1ccc(C(=O)NO)s1)Nc1ccccc1 [Compound 63]
536 ± 168 | – | CC(C)(C(=O)Nc1ccc2cc(C(=O)NO)sc2c1)c1ccc(Cl)cc1 [Compound 159]
– | 9260 ± 1180 | O=C(NO)c1cc(-c2ccccc2)cs1 [Compound 199]

IC50 [1] [nM] | IC50 (Table 2, thiophene backbone) [nM] | SMILES
54 | – | COc1cccc(CC(=O)Nc2ccc3sc(C(=O)NO)cc3c2)c1 [Compound 53]
146 ± 10.3 | – | O=C(NCCc1ccccn1)c1ccc2cc(C(=O)NO)sc2c1 [Compound 134]
76 ± 21.2 | – | O=C(NCc1ccccc1)c1ccc2sc(C(=O)NO)cc2c1 [Compound 111]
– | 461 | O=C(NO)c1ccc(-c2cccc(CN(Cc3ccccc3)Cc3ccnc4ccccc34)c2)s1 [Compound 71]
1360 ± 47.3 | – | O=C(NC1CCc2ccccc21)c1ccc2sc(C(=O)NO)cc2c1 (stereo not drawn) [Compound 172]
111 ± 23.3 | – | COc1ccc(OC)c(CC(=O)Nc2ccc3sc(C(=O)NO)cc3c2)c1 [Compound 87]
– | 127 ± 11.3 | O=C(CCc1ccc(C(=O)NO)s1)Nc1cccc(OCc2ccccc2)c1 [Compound 195]
102 ± 26.2 | – | O=C(CN(CC(=O)Nc1ccccc1)C(=O)c1ccc2sc(C(=O)NO)cc2c1)Nc1ccccc1 [Compound 179]
76 | – | COc1ccc(CN(Cc2ccc3cc(C(=O)NO)sc3c2)C2CCOCC2)cc1 [Compound 194]
615 ± 207 | – | O=C(Nc1ccccc1)c1ccc2cc(C(=O)NO)sc2c1 [Compound 137]
– | 666 | O=C(/C=C/c1ccc(C(=O)NO)s1)NC1CCCCC1 [Compound 79]
94 ± 5.6 | – | COc1cccc(CNC(=O)c2ccc3sc(C(=O)NO)cc3c2)c1 [Compound 167]
672 ± 98.9 | – | O=C(NO)c1cc2ccccc2s1 [Compound 1]
56.5 ± 16.2 | – | O=C(Cc1ccc(F)cc1)Nc1ccc2sc(C(=O)NO)cc2c1 [Compound 84]
– | 933 ± 22.6 | O=C(NO)c1ccc(-c2cccc(CN(CCc3ccccc3)Cc3ccccc3)c2)s1 [Compound 62]
162 ± 54.4 | – | Cc1ccc(S(=O)(=O)Nc2ccc3sc(C(=O)NO)cc3c2)cc1 [Compound 44]
280 | – | COc1ccc(C(=O)Nc2ccc3cc(C(=O)NO)sc3c2)cc1OC [Compound 48]
24 | – | O=C(CN1CCc2ccccc2C1)Nc1ccc2cc(C(=O)NO)sc2c1 [Compound 47]
– | 526 | O=C(CCc1ccc(C(=O)NO)s1)NCCCc1ccccc1 [Compound 82]
30.3 ± 6.5 | – | O=C(NCc1nc2ccccc2[nH]1)c1ccc2cc(C(=O)NO)sc2c1 [Compound 133]
428 ± 102 | – | O=C(NCCC(c1ccccc1)c1ccccc1)c1ccc2sc(C(=O)NO)cc2c1 [Compound 174]
1070 ± 21.9 | – | O=C(Nc1cccc2cccnc12)c1ccc2cc(C(=O)NO)sc2c1 [Compound 182]
60.5 ± 2.1 | – | Cc1ccc(S(=O)(=O)Nc2ccc3cc(C(=O)NO)sc3c2)cc1 [Compound 43]

IC50 [1] [nM] | IC50 (Table 2, thiophene backbone) [nM] | SMILES
609 ± 24.7 | – | O=C(NO)c1cc2cc(C(F)(F)F)ccc2s1 [Compound 2]
185 ± 52.3 | – | O=C(/C=C/c1ccccc1)Nc1ccc2sc(C(=O)NO)cc2c1 [Compound 16]
– | 714 ± 122 | O=C(Nc1ccc(C(=O)NO)s1)c1ccccc1 [Compound 56]
869 ± 108 | – | O=C(NO)c1cc2cc(CNC(c3ccccc3)c3ccccc3)ccc2s1 [Compound 140]
– | 1450 ± 111 | O=C(CCc1ccc(C(=O)NO)s1)NCC1CCCCC1 [Compound 196]
162 ± 40.3 | – | O=C(NCC(c1ccccc1)c1ccccc1)c1ccc2cc(C(=O)NO)sc2c1 [Compound 130]
97 ± 21 | – | O=C(CN1CCN(c2cccc(Cl)c2)CC1)Nc1ccc2cc(C(=O)NO)sc2c1 [Compound 120]
91 ± 49.4 | – | O=C(NO)c1cc2cc(NS(=O)(=O)c3ccc(-c4ccccc4)cc3)ccc2s1 [Compound 18]
– | 730 ± 127 | O=C(Nc1ccc(C(=O)NO)s1)c1ccc2ccccc2c1 [Compound 58]
154 ± 8.4 | – | O=C(NCCCCc1ccccc1)c1ccc2sc(C(=O)NO)cc2c1 [Compound 175]
85.7 ± 23.5 | – | O=C(NCc1ccccn1)c1ccc2cc(C(=O)NO)sc2c1 [Compound 94]
61 ± 9.8 | – | O=C(CCc1ccccc1)Nc1ccc2sc(C(=O)NO)cc2c1 [Compound 4]
199 ± 35.3 | – | O=C(NO)c1cc2ccc(COCc3ccccc3)cc2s1 [Compound 184]
79.5 ± 33.2 | – | O=C(Cc1ccc(Cl)cc1)Nc1ccc2sc(C(=O)NO)cc2c1 [Compound 95]
164 ± 1.4 | – | O=C(NO)c1cc2ccc(NC(=O)C3(c4ccc(Cl)cc4)CC3)cc2s1 [Compound 125]
– | 461 | O=C(NO)c1ccc(-c2cccc(CN(CCCc3ccccc3)Cc3cnc4ccccc4c3)c2)s1 [Compound 74]
413 | – | O=C(Nc1ccc2sc(C(=O)NO)cc2c1)c1ccc2ccccc2c1 [Compound 41]
88 | – | O=C(NCc1cccc(Cl)c1)c1ccc2sc(C(=O)NO)cc2c1 [Compound 170]
88.5 ± 33.2 | – | O=C(NCCc1ccccc1)Nc1ccc2cc(C(=O)NO)sc2c1 [Compound 32]
30775 ± 7 | – | CN(O)C(=O)c1cc2ccc(N(C)C(=O)Cc3ccccc3)cc2s1 [Compound 113]
627 ± 5.6 | – | COC(=O)c1ccc2cc(C(=O)NO)sc2c1 [Compound 23]
236 ± 28.9 | – | CC(C)(C)OC(=O)CN(CC(=O)Nc1ccc2cc(C(=O)NO)sc2c1)CC(=O)OC(C)(C)C [Compound 118]
37 | – | O=C(CN1CCN(c2ccccc2)CC1)Nc1ccc2cc(C(=O)NO)sc2c1 [Compound 46]

IC50 [1] [nM] | IC50 (Table 2, thiophene backbone) [nM] | SMILES
350 ± 13.4 | – | CCOC(=O)Nc1ccc2cc(C(=O)NO)sc2c1 [Compound 31]
582 ± 9.8 | – | O=C(Nc1ccccc1)c1ccc2sc(C(=O)NO)cc2c1 [Compound 104]
424 | – | O=C(NO)c1ccc2sc(C(=O)NO)cc2c1 [Compound 42]
116 ± 3.5 | – | O=C(NO)c1cc2cc(CNCc3nc4ccccc4[nH]3)ccc2s1 [Compound 141]
155 ± 13.4 | – | O=C(NCCc1ccccc1)c1ccc2sc(C(=O)NO)cc2c1 [Compound 105]
113 ± 33.2 | – | O=C(Nc1ccc2cc(C(=O)NO)sc2c1)OCc1ccccc1 [Compound 30]
444 | – | O=C(Nc1ccc2sc(C(=O)NO)cc2c1)c1ccc2ccccc2n1 [Compound 38]
– | 174 | O=C(NO)c1ccc(-c2cccc(CN3CCN(c4ccccc4)CC3)c2)s1 [Compound 69]
84 ± 5.6 | – | O=C(CN1CCOCC1)Nc1ccc2cc(C(=O)NO)sc2c1 [Compound 116]
166 ± 22.6 | – | O=C(NO)c1cc2cc(NS(=O)(=O)c3ccccc3)ccc2s1 [Compound 26]
204 ± 48.7 | – | O=C(Nc1ccc2cc(C(=O)NO)sc2c1)c1ccccc1 [Compound 5]
41 ± 11.3 | – | O=C(NO)c1cc2ccc(NS(=O)(=O)Cc3ccccc3)cc2s1 [Compound 11]
58 | – | O=C(NCCc1ccccc1)c1ccc2cc(C(=O)NO)sc2c1 [Compound 161]
– | 399 | O=C(NO)c1ccc(-c2cccc(CN(Cc3ccccc3)Cc3cnc4ccccc4c3)c2)s1 [Compound 70]
– | 70 | O=C(/C=C/c1ccc(C(=O)NO)s1)NCCCc1ccccc1 [Compound 66]
99 | – | COc1ccc(CN(Cc2ccc3cc(C(=O)NO)sc3c2)C2CCCCC2)cc1 [Compound 193]
62 | – | COc1ccc(OC)c(CC(=O)Nc2ccc3cc(C(=O)NO)sc3c2)c1 [Compound 51]
– | 705 ± 92.6 | O=C(NO)c1ccc(-c2cccc(CN(CCc3ccccc3)Cc3ccnc4ccccc34)c2)s1 [Compound 73]
– | 134 ± 7.7 | O=C(CCc1ccc(C(=O)NO)s1)Nc1nc2ccccc2s1 [Compound 197]
20 | – | COc1ccccc1CC(=O)Nc1ccc2cc(C(=O)NO)sc2c1 [Compound 52]
31 ± 7 | – | O=C(Cc1ccccc1)Nc1ccc2sc(C(=O)NO)cc2c1 [Compound 15]
